Results published in patent publication US9730937B2, “RAF kinase modulator compounds and methods of use thereof” (AMBIT BIOSCIENCES CORPORATION, priority 2008, dated 2017).
Structures can show the parent of a compound that is named as a salt. Where two headings read alike, the source gives them in different places.

How the values were obtained:
RAF kinases = RAF kinases (Homo sapiens (Human), UniProt P04049); conditions: read-out: RAF1 Kd, class symbols
mutant BRAF kinase = mutant BRAF kinase (Homo sapiens (Human), UniProt P15056, V600E); conditions: read-out: BRAF V600E Kd, class symbols
mutant BRAF kinase, sequence (P15056 whole entry V600E): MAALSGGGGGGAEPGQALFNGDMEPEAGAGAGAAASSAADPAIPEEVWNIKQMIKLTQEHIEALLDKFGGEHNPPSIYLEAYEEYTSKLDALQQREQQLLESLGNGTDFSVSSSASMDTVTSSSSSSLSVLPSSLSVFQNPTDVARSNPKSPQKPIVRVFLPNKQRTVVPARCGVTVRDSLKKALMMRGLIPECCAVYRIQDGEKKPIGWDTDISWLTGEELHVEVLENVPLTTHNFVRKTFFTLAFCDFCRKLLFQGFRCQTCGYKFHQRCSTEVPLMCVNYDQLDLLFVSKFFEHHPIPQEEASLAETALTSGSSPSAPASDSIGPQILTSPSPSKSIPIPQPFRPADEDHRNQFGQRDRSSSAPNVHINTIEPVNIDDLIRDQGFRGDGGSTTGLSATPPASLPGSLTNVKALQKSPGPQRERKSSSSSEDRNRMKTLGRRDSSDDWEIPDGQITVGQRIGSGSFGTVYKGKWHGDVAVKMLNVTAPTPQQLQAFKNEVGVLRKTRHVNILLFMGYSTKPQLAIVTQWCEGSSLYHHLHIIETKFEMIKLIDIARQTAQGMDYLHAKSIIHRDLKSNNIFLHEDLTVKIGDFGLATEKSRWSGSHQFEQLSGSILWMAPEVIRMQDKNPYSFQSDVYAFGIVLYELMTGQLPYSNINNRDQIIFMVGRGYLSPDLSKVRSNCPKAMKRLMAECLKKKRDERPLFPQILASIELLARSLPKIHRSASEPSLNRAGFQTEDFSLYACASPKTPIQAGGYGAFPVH

[1] = tested on: panel of 290 distinct kinases (321 in the larger panel), excluding mutant variants; conditions: kinase selectivity score, class symbols
[2] = value marked * (larger kinase panel)

RAF kinases, sequence (P04049 whole entry): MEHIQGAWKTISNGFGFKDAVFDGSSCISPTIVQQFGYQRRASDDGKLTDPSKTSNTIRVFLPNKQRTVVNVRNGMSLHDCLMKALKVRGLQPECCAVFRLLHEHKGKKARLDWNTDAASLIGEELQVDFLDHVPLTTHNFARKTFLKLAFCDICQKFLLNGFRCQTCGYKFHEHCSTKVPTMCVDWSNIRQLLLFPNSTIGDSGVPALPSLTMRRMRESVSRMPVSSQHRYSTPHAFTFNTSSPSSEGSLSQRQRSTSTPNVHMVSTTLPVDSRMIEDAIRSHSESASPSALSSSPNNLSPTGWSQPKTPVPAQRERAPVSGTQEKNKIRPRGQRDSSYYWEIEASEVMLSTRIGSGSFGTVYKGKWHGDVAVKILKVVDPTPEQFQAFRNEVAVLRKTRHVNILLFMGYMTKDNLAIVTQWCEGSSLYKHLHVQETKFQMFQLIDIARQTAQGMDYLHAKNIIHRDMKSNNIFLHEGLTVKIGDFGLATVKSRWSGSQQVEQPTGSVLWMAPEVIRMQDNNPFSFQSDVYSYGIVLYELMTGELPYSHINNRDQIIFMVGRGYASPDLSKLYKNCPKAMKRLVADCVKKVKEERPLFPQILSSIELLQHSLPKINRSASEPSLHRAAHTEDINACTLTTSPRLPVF

Row | Compound | Kd (RAF kinases) | Kd (mutant BRAF kinase) | S35 ([1]; 290 distinct kinases) | S35 [1, 2]
1 | COc1cc2ncnc(Oc3cccc(NC(=O)Nc4ccc(OC)c(C(F)(F)F)c4)c3)c2cc1OC [Ex 138, 1-(3-(6,7-dimethoxyquinazolin-4-yloxy)phenyl)-3-(4-methoxy-3-(trifluoromethyl)phenyl)urea] | < 0.25 µM | < 0.25 µM | B (0.10 < B ≦ 0.20) | –
2 | COc1cc2c(Oc3cccc(NC(=O)Nc4cc(C(C)(C)C)on4)c3)ncnc2cc1O[C@@H]1CCNC1 [Ex 98, (R)-1-(5-tert-butylisoxazol-3-yl)-3-(3-(6-methoxy-7-(pyrrolidin-3-yloxy)quinazolin-4-yloxy)phenyl)urea dihydrochloride] | < 0.25 µM | < 0.25 µM | C (0.20 < C ≦ 0.40) | –
3 | COc1cc2c(Oc3cccc(NC(=O)Nc4cc(C(C)(C)C)on4)c3)ncnc2cc1OCCCN1CCN(C)CC1 [Ex 28, 1-(5-tert-butylisoxazol-3-yl)-3-(3-(6-methoxy-7-(3-(4-methylpiperazin-1-yl)propoxy)quinazolin-4-yloxy)phenyl)urea] | < 0.25 µM | < 0.25 µM | D (D > 0.40) | –
4 | COc1cc2ncnc(Oc3cccc(NC(=O)Nc4cccc(C(C)C)c4)c3)c2cc1OC [Ex 144, 1-(3-(6,7-dimethoxyquinazolin-4-yloxy)phenyl)-3-(3-isopropylphenyl)urea] | < 0.25 µM | < 0.25 µM | – | C* (0.20 < C ≦ 0.40)
5 | COc1cc2ncnc(Oc3cccc(NC(=O)Nc4cc(-c5ccccc5)on4)c3)c2cc1OC [Ex 113, 1-(3-(6,7-dimethoxyquinazolin-4-yloxy)phenyl)-3-(5-phenylisoxazol-3-yl)urea] | < 0.25 µM | – | B (0.10 < B ≦ 0.20) | –
6 | COCCOc1cc(NC(=O)Nc2cccc(Sc3ncnc4cc(OC)c(OC)cc34)c2)cc(C(F)(F)F)c1 [Ex 200, 1-(3-(6,7-dimethoxyquinazolin-4-ylthio)phenyl)-3-(3-(2-methoxyethoxy)-5-(trifluoromethyl)phenyl)urea] | > 1 µM | – | C (0.20 < C ≦ 0.40) | –
7 | COc1cc2c(Oc3cccc(NC(=O)Nc4cc(C(C)(C)C)on4)c3)ncnc2cc1OCCCN1CC[C@H](O)C1 [Ex 33, (S)-1-(5-tert-butylisoxazol-3-yl)-3-(3-(7-(3-(3-hydroxypyrrolidin-1-yl)propoxy)-6-methoxyquinazolin-4-yloxy)phenyl)urea] | – | < 0.25 µM | – | D* (D > 0.40)
8 | CCOc1cc2c(Sc3cccc(NC(=O)Nc4cc(C(C)(C)C)on4)c3)ncnc2cc1OC [Ex 56, 1-(5-tert-butylisoxazol-3-yl)-3-(3-(6-ethoxy-7-methoxyquinazolin-4-ylthio)phenyl)urea] | – | < 0.25 µM | B (0.10 < B ≦ 0.20) | –
9 | COc1cc2c(Sc3cccc(NC(=O)Nc4cc(C(C)(C)C)on4)c3)ncnc2cc1OCCN1CCCCC1 [Ex 80, 1-(5-tert-butylisoxazol-3-yl)-3-(3-(6-methoxy-7-(2-(piperidin-1-yl)ethoxy)quinazolin-4-ylthio)phenyl)urea] | – | < 0.25 µM | C (0.20 < C ≦ 0.40) | –
10 | COc1cc2ncnc(Oc3cccc(NC(=O)Nc4cc(C(C)(C)C)on4)c3)c2cc1OCCN1CCS(=O)(=O)CC1 [Ex 91, 1-(5-tert-butyl-isoxazol-3-yl)-3-(3-{6-[2-(1,1-dioxo-thiomorpholin-4-yl)-ethoxy]-7-methoxy-quinazolin-4-yloxy}-phenyl)-urea] | – | < 0.25 µM | C (0.20 < C ≦ 0.40) | –
11 | COc1cc2c(Oc3cccc(NC(=O)Nc4cc(C(C)(C)C)on4)c3)ncnc2cc1O[C@@H]1CCN(C)C1 [Ex 99, (R)-1-(5-tert-butylisoxazol-3-yl)-3-(3-(6-methoxy-7-(1-methylpyrrolidin-3-yloxy)quinazolin-4-yloxy)phenyl)urea mono acetate] | – | < 0.25 µM | C (0.20 < C ≦ 0.40) | –
12 | COc1cc2ncnc(Sc3cccc(NC(=O)Nc4cc(C(C)(C)C)on4)c3)c2cc1OCCN1CCN(C)CC1 [Ex 67, 1-(5-tert-butylisoxazol-3-yl)-3-(3-(7-methoxy-6-(2-(4-methylpiperazin-1-yl)ethoxy)quinazolin-4-ylthio)phenyl)urea] | – | < 0.25 µM | C (0.20 < C ≦ 0.40) | –
13 | COc1cc2ncnc(Sc3cccc(NC(=O)Nc4cc(C(C)(C)C)on4)c3)c2cc1OCCCN1CCCCC1 [Ex 57, 1-(5-tert-butylisoxazol-3-yl)-3-(3-(7-methoxy-6-(3-(piperidin-1-yl)propoxy)quinazolin-4-ylthio)phenyl)urea] | – | < 0.25 µM | C (0.20 < C ≦ 0.40) | –
14 | COc1cc2c(Oc3cccc(NC(=O)Nc4cc(C(C)(C)C)on4)c3)ncnc2cc1OCCN1CCOCC1 [Ex 35, 1-(5-tert-butylisoxazol-3-yl)-3-(3-(6-methoxy-7-(2-morpholinoethoxy)quinazolin-4-yloxy)phenyl)urea] | – | < 0.25 µM | C (0.20 < C ≦ 0.40) | –
15 | COc1cc2c(Oc3cccc(NC(=O)Nc4cc(C(C)(C)C)on4)c3)ncnc2cc1OCCCN1CCOCC1 [Ex 27, 1-(5-tert-butylisoxazol-3-yl)-3-(3-(6-methoxy-7-(3-morpholinopropoxy)quinazolin-4-yloxy)phenyl)urea] | – | < 0.25 µM | D (D > 0.40) | –
16 | COc1cc2c(Sc3cccc(NC(=O)Nc4cc(C(C)(C)C)on4)c3)ncnc2cc1OCCN1CCN(C)CC1 [Ex 83, 1-(5-tert-butylisoxazol-3-yl)-3-(3-(6-methoxy-7-(2-(4-methylpiperazin-1-yl)ethoxy)quinazolin-4-ylthio)phenyl)urea] | – | < 0.25 µM | C (0.20 < C ≦ 0.40) | –
17 | COCCOc1cc2ncnc(Oc3cccc(NC(=O)Nc4cc(C(C)(C)C)on4)c3)c2cc1OCCOC [Ex 12, 1-{3-[6,7-bis(2-methoxyethoxy)quinazolin-4-yloxy]phenyl}-3-(5-tert-butylisoxazol-3-yl)urea hydrochloride] | – | < 0.25 µM | C (0.20 < C ≦ 0.40) | –
18 | COc1cc2c(Sc3cccc(NC(=O)Nc4cc(C(C)(C)C)on4)c3)ncnc2cc1OCCN1CCOCC1 [Ex 79, (1-(5-tert-butylisoxazol-3-yl)-3-(3-(6-methoxy-7-(2-morpholinoethoxy)quinazolin-4-ylthio)phenyl)urea)] | – | < 0.25 µM | D (D > 0.40) | –
19 | COCCOc1cc2ncnc(Sc3cccc(NC(=O)Nc4cc(C(C)(C)C)on4)c3)c2cc1OC [Ex 52, 1-(5-tert-butylisoxazol-3-yl)-3-{3-[6-methoxy-7-(2-methoxyethoxy)quinazolin-4-ylthio]phenyl}urea hydrochloride] | – | < 0.25 µM | C (0.20 < C ≦ 0.40) | –
20 | COc1cc2ncnc(Sc3cccc(NC(=O)Nc4cc(C(C)(C)C)on4)c3)c2cc1OCCCN1CCN(S(C)(=O)=O)CC1 [Ex 60, 1-(5-tert-butylisoxazol-3-yl)-3-(3-(7-methoxy-6-(3-(4-(methylsulfonyl)piperazin-1-yl)propoxy)quinazolin-4-ylthio)phenyl)urea] | – | < 0.25 µM | C (0.20 < C ≦ 0.40) | –
21 | COc1cc2ncnc(Sc3cccc(NC(=O)Nc4cc(C(C)(C)C)on4)c3)c2cc1OCCCN1CCN(C)CC1 [Ex 59, 1-(5-tert-butylisoxazol-3-yl)-3-(3-(7-methoxy-6-(3-(4-methylpiperazin-1-yl)propoxy)quinazolin-4-ylthio)phenyl)urea] | – | < 0.25 µM | D (D > 0.40) | –
22 | COc1cc2c(Oc3cccc(NC(=O)Nc4cc(C(C)(C)C)on4)c3)ncnc2cc1OCCN1CCS(=O)(=O)CC1 [Ex 39, 1-(5-tert-butyl-isoxazol-3-yl)-3-(3-{7-[2-(1,1-dioxo-116-thiomorpholin-4-yl)-ethoxy]-6-methoxy-quinazolin-4-yloxy}-phenyl)-urea] | – | < 0.25 µM | C (0.20 < C ≦ 0.40) | –
23 | COc1cc2c(Sc3cccc(NC(=O)Nc4cc(C(C)(C)C)on4)c3)ncnc2cc1OCCCN1CCN(C)CC1 [Ex 73, 1-(5-tert-butylisoxazol-3-yl)-3-(3-(6-methoxy-7-(3-(4-methylpiperazin-1-yl)propoxy)quinazolin-4-ylthio)phenyl)urea] | – | < 0.25 µM | D (D > 0.40) | –
24 | CCOc1cccc(NC(=O)Nc2cccc(Oc3ncnc4cc(OC)c(OC)cc34)c2)c1 [Ex 179, 1-(3-(6,7-dimethoxyquinazolin-4-yloxy)phenyl)-3-(3-ethoxyphenyl)urea] | – | < 0.25 µM | – | B* (0.10 < B ≦ 0.20)
25 | COc1cc2c(Oc3cccc(NC(=O)Nc4cc(C(C)(C)C)on4)c3)ncnc2cc1OCCCN1CC[C@@H](O)C1 [Ex 34, (R)-1-(5-tert-Butylisoxazol-3-yl)-3-(3-(7-(3-(3-hydroxypyrrolidin-1-yl)propoxy)-6-methoxyquinazolin-4-yloxy)phenyl)urea] | – | < 0.25 µM | – | D* (D > 0.40)
26 | COCCOc1cc2c(Oc3cccc(NC(=O)Nc4cc(C(C)(C)C)on4)c3)ncnc2cc1OC [Ex 15, 1-(5-tert-butylisoxazol-3-yl)-3-{3-[7-methoxy-6-(2-methoxyethoxy)quinazolin-4-yloxy]phenyl}urea hydrochloride] | – | < 0.25 µM | C (0.20 < C ≦ 0.40) | –
27 | COc1cc2ncnc(Oc3cccc(NC(=O)Nc4cc(C(C)(C)C)on4)c3)c2cc1OCCN1CCN(C)CC1 [Ex 18, 1-(5-tert-butylisoxazol-3-yl)-3-(3-(7-methoxy-6-(2-(4-methylpiperazin-1-yl)ethoxy)quinazolin-4-yloxy)phenyl)urea] | – | < 0.25 µM | D (D > 0.40) | –
28 | COc1cc2c(Oc3cccc(NC(=O)Nc4cc(C(C)(C)C)on4)c3)ncnc2cc1OCCN1CCN(C)CC1 [Ex 36, 1-(5-tert-butylisoxazol-3-yl)-3-(3-(6-methoxy-7-(2-(4-methylpiperazin-1-yl)ethoxy)quinazolin-4-yloxy)phenyl)urea] | – | < 0.25 µM | C (0.20 < C ≦ 0.40) | –
29 | COc1cc2c(Oc3cccc(NC(=O)Nc4cc(C(C)(C)C)on4)c3)ncnc2cc1OCCCN1CCN(S(C)(=O)=O)CC1 [Ex 32, 1-(5-tert-butylisoxazol-3-yl)-3-(3-(6-methoxy-7-(3-(4-(methylsulfonyl)piperazin-1-yl)propoxy)quinazolin-4-yloxy)phenyl)urea] | – | < 0.25 µM | D (D > 0.40) | –
